Test results published in PubChem BioAssay AID180 (DTP/NCI, 2004).
“And” between values parts separate entries of the source, which are not always exact repeats. Identical values can stand only once.

Test system: BDF1 mice, Adenocarcinoma 755 s.c., tumor weight T/C
Assay: NCI In Vivo Anticancer Drug Screen. Data for tumor model Adenocarcinoma 755 (subcutaneous) in B6D2F1 (BDF1) mice
Settings: endpoint: mean tumor weight, higher = larger tumour
In short: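 In vivo antitumor screen on a transplantable tumor line. Result equals the measure in compound-treated animals divided by the same measure in vehicle controls.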

[1] = dose: 25.0 mg/kg/injection, schedule: Q01DX011 (ip), vehicle: methylcellulose (MC)

In the case of `CC1C[C@@H]2[C@H]([C@@H](O)C[C@@]3(C)[C@H]2CC[C@]3(O)C(=O)CF)[C@@]2(C)CCC(=O)C=C12` (stereo not given in full), the T/C (dose: 1.2 mg/kg/injection, schedule: Q01DX011 (sc), vehicle: steriod suspending solution) is reported as 108 % of control, the T/C (dose: 2.5 mg/kg/injection, schedule: Q01DX011 (sc), vehicle: steriod suspending solution) is reported as 92 % of control and the T/C (dose: 8.0 mg/kg/injection, schedule: Q01DX011 (sc), vehicle: steriod suspending solution) is reported as 82 % of control. For the same compound, the T/C (dose: 10.0 mg/kg/injection, schedule: Q01DX011 (sc), vehicle: steriod suspending solution) was 35 % of control, the T/C (dose: 16.0 mg/kg/injection, schedule: Q01DX011 (sc), vehicle: steriod suspending solution) was 75 % of control and the T/C (dose: 20.0 mg/kg/injection, schedule: Q01DX011 (sc), vehicle: steriod suspending solution) was 30 % of control. The T/C (dose: 32.0 mg/kg/injection, schedule: Q01DX011 (sc), vehicle: steriod suspending solution) was 55 % of control, the T/C (dose: 40.0 mg/kg/injection, schedule: Q01DX011 (sc), vehicle: steriod suspending solution) was 13 % of control and the T/C (dose: 170.0 mg/kg/injection, schedule: Q01DX011 (sc), vehicle: steriod suspending solution) was 5 % of control and 10 % of control. The T/C (dose: 340.0 mg/kg/injection, schedule: Q01DX011 (sc), vehicle: steriod suspending solution) was 9 % of control and 13 % of control.

`CCCn1cnc2c(SCC(=O)O)nc(N)nc21` was tested, and the T/C [1] was 58 % of control, the T/C (dose: 50.0 mg/kg/injection, schedule: Q01DX011 (ip), vehicle: methylcellulose (MC)) was 37 % of control and the T/C (dose: 100.0 mg/kg/injection, schedule: Q01DX011 (ip), vehicle: methylcellulose (MC)) was 46 % of control. The T/C (dose: 200.0 mg/kg/injection, schedule: Q01DX011 (ip), vehicle: methylcellulose (MC)) was 36 % of control.

For `CN(C)[C@@H]1C(=O)C(C(=O)NCNCCCC(=O)O)=C(O)[C@@]2(O)C(=O)C3=C(O)c4c(O)cccc4[C@@](C)(O)[C@H]3C[C@@H]12`, the T/C (dose: 87.5 mg/kg/injection, schedule: Q01DX011 (ip), vehicle: saline) was 106 % of control and 115 % of control, the T/C (dose: 175.0 mg/kg/injection, schedule: Q01DX011 (ip), vehicle: saline) was 54 % of control and 78 % of control and the T/C (dose: 350.0 mg/kg/injection, schedule: Q01DX011 (ip), vehicle: saline) was 51 % of control and 52 % of control.

For `Cn1c(=O)c2c(nc(C(=N)SCC(=O)O)n2C)n(C)c1=O`, the T/C [1] was 61 % of control.

With `Nc1ccn(C2OC(CO)C(O)C2O)c(=O)n1` (stereo not given) the T/C (dose: 15.0 mg/kg/injection, schedule: Q01DX011 (ip), vehicle: saline) was 36 % of control, the T/C (dose: 27.0 mg/kg/injection, schedule: Q01DX011 (ip), vehicle: saline) was 14 % of control and the T/C (dose: 30.0 mg/kg/injection, schedule: Q01DX011 (ip), vehicle: saline) was 36 % of control. The T/C (dose: 40.0 mg/kg/injection, schedule: Q01DX011 (ip), vehicle: saline) was 7 % of control, the T/C (dose: 60.0 mg/kg/injection, schedule: Q## X024 (ip), vehicle: saline) was 15 % of control and the T/C (dose: 120.0 mg/kg/injection, schedule: Q## X024 (ip), vehicle: saline) was 8 % of control.

`CCCSc1ncnc2nc[nH]c12` was tested, and the T/C (dose: 0.12 mg/kg/injection, schedule: Q#A X022 (ip), vehicle: alcohol) was 73 % of control, the T/C (dose: 0.25 mg/kg/injection, schedule: Q#A X022 (ip), vehicle: alcohol) was 46 % of control and the T/C (dose: 0.5 mg/kg/injection, schedule: Q01DX011 (ip), vehicle: alcohol) was 80 % of control. For the same compound, the T/C (dose: 1.0 mg/kg/injection, schedule: Q01DX006 (iv), vehicle: alcohol) was 111 % of control, the T/C (dose: 1.0 mg/kg/injection, schedule: Q01DX011 (im), vehicle: alcohol) was 82 % of control and the T/C (dose: 1.0 mg/kg/injection, schedule: Q01DX011 (ip), vehicle: alcohol) was 55 % of control. For the same compound, the T/C (dose: 1.0 mg/kg/injection, schedule: Q01DX011 (oral), vehicle: alcohol) was 44 % of control, the T/C (dose: 1.0 mg/kg/injection, schedule: Q01DX011 (sc), vehicle: alcohol) was 98 % of control and the T/C (dose: 1.0 mg/kg/injection, schedule: Q03DX004 (ip), vehicle: alcohol) was 56 % of control. For the same compound, the T/C (dose: 2.5 mg/kg/injection, schedule: Q01DX011 (ip), vehicle: alcohol) was 24 % of control, the T/C (dose: 2.5 mg/kg/injection, schedule: Q#A X022 (ip), vehicle: alcohol) was 7 % of control and the T/C (dose: 3.0 mg/kg/injection, schedule: Q01DX011 (oral), vehicle: alcohol) was 15 % of control. For the same compound, the T/C (dose: 3.0 mg/kg/injection, schedule: Q03DX004 (ip), vehicle: alcohol) was 85 % of control, the T/C (dose: 3.0 mg/kg/injection, schedule: Q07DX002 (ip), vehicle: alcohol) was 53 % of control and the T/C (dose: 5.0 mg/kg/injection, schedule: Q01DX006 (iv), vehicle: alcohol) was 16 % of control. For the same compound, the T/C (dose: 5.0 mg/kg/injection, schedule: Q01DX011 (im), vehicle: alcohol) was 9 % of control, the T/C (dose: 5.0 mg/kg/injection, schedule: Q01DX011 (ip), vehicle: alcohol) was 3 % of control and the T/C (dose: 5.0 mg/kg/injection, schedule: Q01DX011 (sc), vehicle: alcohol) was 5 % of control. The T/C (dose: 5.0 mg/kg/injection, schedule: Q#A X022 (ip), vehicle: alcohol) was 3 % of control, the T/C (dose: 6.0 mg/kg/injection, schedule: Q01DX011 (oral), vehicle: alcohol) was 4 % of control and the T/C (dose: 6.0 mg/kg/injection, schedule: Q03DX004 (ip), vehicle: alcohol) was 74 % of control. For the same compound, the T/C (dose: 6.0 mg/kg/injection, schedule: Q07DX002 (ip), vehicle: alcohol) was 20 % of control, the T/C (dose: 10.0 mg/kg/injection, schedule: Q01DX006 (iv), vehicle: alcohol) was 10 % of control and the T/C (dose: 10.0 mg/kg/injection, schedule: Q01DX011 (ip), vehicle: alcohol) was 4 % of control. The T/C (dose: 10.0 mg/kg/injection, schedule: Q01DX011 (sc), vehicle: alcohol) was 4 % of control, the T/C (dose: 10.0 mg/kg/injection, schedule: Q#A X022 (ip), vehicle: alcohol) was 4 % of control and the T/C (dose: 12.0 mg/kg/injection, schedule: Q01DX001 (ip), vehicle: alcohol) was 62 % of control. For the same compound, the T/C (dose: 12.0 mg/kg/injection, schedule: Q01DX011 (oral), vehicle: alcohol) was 4 % of control, the T/C (dose: 12.0 mg/kg/injection, schedule: Q03DX004 (ip), vehicle: alcohol) was 26 % of control and the T/C (dose: 12.0 mg/kg/injection, schedule: Q07DX002 (ip), vehicle: alcohol) was 36 % of control. The T/C (dose: 20.0 mg/kg/injection, schedule: Q01DX006 (iv), vehicle: alcohol) was 1 % of control, the T/C (dose: 20.0 mg/kg/injection, schedule: Q01DX011 (ip), vehicle: alcohol) was 2 % of control and the T/C (dose: 20.0 mg/kg/injection, schedule: Q01DX011 (sc), vehicle: alcohol) was 6 % of control. For the same compound, the T/C (dose: 25.0 mg/kg/injection, schedule: Q01DX001 (ip), vehicle: alcohol) was 49 % of control, the T/C (dose: 25.0 mg/kg/injection, schedule: Q03DX004 (ip), vehicle: alcohol) was 5 % of control and the T/C (dose: 25.0 mg/kg/injection, schedule: Q07DX002 (ip), vehicle: alcohol) was 12 % of control. The T/C (dose: 30.0 mg/kg/injection, schedule: Q01DX011 (ip), vehicle: alcohol) was 3 % of control, the T/C (dose: 50.0 mg/kg/injection, schedule: Q03DX004 (ip), vehicle: alcohol) was 16 % of control and the T/C (dose: 50.0 mg/kg/injection, schedule: Q07DX002 (ip), vehicle: alcohol) was 16 % of control. For the same compound, the T/C (dose: 100.0 mg/kg/injection, schedule: Q01DX001 (ip), vehicle: alcohol) was 35 % of control and 51 % of control, the T/C (dose: 100.0 mg/kg/injection, schedule: Q03DX004 (ip), vehicle: alcohol) was 3 % of control and the T/C (dose: 100.0 mg/kg/injection, schedule: Q07DX002 (ip), vehicle: alcohol) was 17 % of control. The T/C (dose: 150.0 mg/kg/injection, schedule: Q01DX001 (ip), vehicle: alcohol) was 21 % of control and 34 % of control, the T/C (dose: 150.0 mg/kg/injection, schedule: Q03DX004 (ip), vehicle: alcohol) was 5 % of control and the T/C (dose: 150.0 mg/kg/injection, schedule: Q07DX002 (ip), vehicle: alcohol) was 5 % of control. For the same compound, the T/C (dose: 200.0 mg/kg/injection, schedule: Q07DX002 (ip), vehicle: alcohol) was 5 % of control.
